Assay results reported in paper PMC6324813, “Biological evaluation of isoflavonoids from Genista halacsyi using estrogen-target cells: Activities of glucosides compared to aglycones” (PLoS ONE, 2019).

Experiments:
ERα [1] = target: T1, ERα (Homo sapiens, UniProt P03372); parameters: purchased Invitrogen; conditions: cited from earlier work
T1 sequence (P03372 1-595): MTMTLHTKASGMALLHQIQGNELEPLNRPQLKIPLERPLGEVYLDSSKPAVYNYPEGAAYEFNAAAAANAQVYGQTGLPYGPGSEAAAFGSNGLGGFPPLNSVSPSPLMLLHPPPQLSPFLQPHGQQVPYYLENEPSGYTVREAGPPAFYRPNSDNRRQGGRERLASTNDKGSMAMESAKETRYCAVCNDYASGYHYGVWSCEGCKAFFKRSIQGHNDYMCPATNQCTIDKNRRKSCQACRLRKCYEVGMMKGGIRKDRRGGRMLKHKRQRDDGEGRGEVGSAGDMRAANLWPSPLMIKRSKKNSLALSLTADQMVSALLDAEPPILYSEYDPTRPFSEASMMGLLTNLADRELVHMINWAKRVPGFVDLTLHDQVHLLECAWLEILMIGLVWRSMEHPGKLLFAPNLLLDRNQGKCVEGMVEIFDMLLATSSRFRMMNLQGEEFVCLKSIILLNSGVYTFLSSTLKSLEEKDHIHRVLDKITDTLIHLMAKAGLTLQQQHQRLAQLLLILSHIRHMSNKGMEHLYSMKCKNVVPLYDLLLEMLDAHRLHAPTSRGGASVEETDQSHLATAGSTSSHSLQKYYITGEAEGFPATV

RAW 264.7 cells = assay: Differentiation of RAW 264.7 cells to osteoclasts, TRAP activity; type: cell-based, mouse; conditions: RANKL 50 ng/ml + E2 1 nM or compound 1 μM; 3 days; DF plus vehicle = 100
Description: Clones of RAW 264.7 cells competent to differentiate to multinuclear osteoclasts upon activation with RANKL provide valuable information on the regulation of osteoclast differentiation. Differentiation-competent RAW cells (ATCC TIB-71) were seeded in 96-well plates at a density of 9,600 cells per well. The cells were plated in the presence of test compounds or compound diluent (0.1% DMSO) and, 4 h after plating, were exposed for 3 days to 50 ng/ml RANKL or to plain medium. Osteoclastic differentiation was assessed via induction of Tartrate-Resistant Acid Phosphatase (TRAP) activity. The cells were washed with PBS and incubated with 25μl lysis buffer (0.4 M NaCl, 25 mM Hepes pH 7.7, 1.5 mM MgCl2, 0.2 mM EDTA, 1% NP40) for 5 min on ice.

ERβ [2] = target: T2, ERβ (Homo sapiens, UniProt Q92731); assay: ER binding competitor assay (fluorescent estrogen ES2), ERβ; parameters: purchased Invitrogen
ERβ [3] = target: T2, ERβ; parameters: purchased Invitrogen; conditions: cited from earlier work
ERβ [4] = target: T2, ERβ; assay: ERE-dependent luciferase gene transcription in HEK:ERβ cells; type: cell-based; parameters: expressed in transfected cells; host or cells: HEK-293 (HEK:ERβ clone, with pERE-tk-Luciferase); conditions: 18 h
ERα [5] = target: T1, ERα; assay: ERE-dependent luciferase gene transcription in MCF-7:D5L cells; type: cell-based; parameters: MCF-7:D5L cells, a clone of MCF-7 cells stably transfected with an Estrogen Response Element (ERE)-endowed reporter plasmid; endogenous in cells; host or cells: MCF-7:D5L (MCF-7 clone carrying pERE-Gl-Luciferase)
Description: Assessment of ER/ERE-dependent luciferase gene transcription in MCF-7:D5L (express ERα) and HEK:ERβ cells (express ERβ) and determination of ER transcriptional agonism was carried as already described. Briefly, the cells were plated in 96-well plates at a density of 12,000 cells per well in phenol-red-free MEM (MCF-7:D5L cells) or phenol-red-free DMEM (HEK:ERβ cells) supplemented with 1 μg/mL insulin and 5% DCC-FBS. […] The AUC of the isoflavonoids of each group were then expressed as % of the AUC of the respective archetypal isoflavone. Since AUC data combine the efficacy as well as the potency of cell response into a single parameter, the %AUC data were considered here as a more reliable measure of relative ER/ERE-dependent luciferase expression of the test compounds.

T2 sequence (Q92731 whole entry): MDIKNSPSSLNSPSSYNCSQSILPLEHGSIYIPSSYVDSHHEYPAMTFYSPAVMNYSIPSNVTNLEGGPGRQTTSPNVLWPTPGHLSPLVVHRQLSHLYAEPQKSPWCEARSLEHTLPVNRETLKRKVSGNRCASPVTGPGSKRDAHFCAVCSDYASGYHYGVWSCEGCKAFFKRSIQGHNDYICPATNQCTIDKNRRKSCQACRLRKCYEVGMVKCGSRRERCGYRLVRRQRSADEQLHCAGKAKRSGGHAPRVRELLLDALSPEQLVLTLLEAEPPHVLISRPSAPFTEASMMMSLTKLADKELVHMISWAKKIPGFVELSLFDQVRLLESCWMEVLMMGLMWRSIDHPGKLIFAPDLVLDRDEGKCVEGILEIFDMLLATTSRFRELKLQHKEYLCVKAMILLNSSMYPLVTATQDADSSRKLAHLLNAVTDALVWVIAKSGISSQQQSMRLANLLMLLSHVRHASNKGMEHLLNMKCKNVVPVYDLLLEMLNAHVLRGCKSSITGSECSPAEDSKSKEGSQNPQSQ

Row | Compound | mean value (and the range) of previously reported RBAα (ERα [1]) | Differentiation of RAW 267.4 cells, TRAP expression (%) (RAW 264.7 cells) | RBAβ / RBAα (ERβ [2]; ERβ-binding selectivity) | RBAβ (ERβ [2]; RBA = (IC50 estradiol/IC50 compound) × 100, ES2 1 nM, estradiol set equal to 100) | mean value (and the range) of previously reported RBAβ (ERβ [3]) | Induction of luciferase gene transcription through ERβ, HEK:ERβ cells, Agonism at 1μΜ (% of 0.1nM E2) (ERβ [4]; compounds 1 μM, estradiol 0.1 nM) | Induction of ERE-dependent Luciferase Transcription (MCF-7:D5L cells) AUC (%) (ERα [5]; % of AUC of luciferase response of archetypal 3, 4, 5 or 8 up to 0.3, 10, 1.0 and 3.0 μM) | Induction of luciferase gene transcription through ERα, MCF-7:D5L cells, Agonism at 1μΜ (% of 0.1nM E2) (ERα [5]; compounds 1 μM, estradiol 0.1 nM, 18 h) | Induction of ERE-dependent Luciferase Transcription (MCF-7:D5L cells) EC25E2 (ERα [5]; concentration required to achieve 25% of the effect of 0.1 nM E2) | EC50 (ERα [5]; concentration required to achieve 50% of the effect of 0.1 nM E2, read-out: Induction of ERE-dependent Luciferase Transcription (MCF-7:D5L cells) EC50E2) | ERα-dependent gene transcription agonist effect compared to the effect of 0.1 nM estradiol (ERα [5]; isoflavonoids 1 μM, statistically significant effects) | activation at 1 µM (ERβ [4]; read-out: Induction of luciferase gene transcription through ERβ, HEK:ERβ cells, Agonism at 1μΜ (% of 0.1nM E2))
1 | O=c1c(-c2ccc(O)cc2)coc2cc(O[C@@H]3O[C@H](CO)[C@@H](O)[C@H](O)[C@H]3O)cc(O)c12 [Compound 12, 7-O-β-D-glucopyranosyl-genistein] | < 0.01 | 110±5% | 1.75 | 0.07 ± 0.02 | < 0.01 | 121 ± 18 (Full) % of 0.1nM E2 |  |  |  |  |  | 
2 | O=c1c(-c2ccc(OC3O[C@H](CO)[C@@H](O)[C@H](O)[C@H]3O)cc2)coc2cc(OC3O[C@H](CO)[C@@H](O)[C@H](O)[C@H]3O)cc(O)c12 (stereo partly shown) [Compound 11, 7,4΄-di-O-glucopyranosylgenistein] |  | 112±9% |  |  |  |  | 75±6% | 114 ± 4 (Full) % of 0.1nM E2 | 0.04 ± 0.01 µM | 0.15 ± 0.03 µM | very similar to estradiol | 80 ± 20%
